Source: ChEMBL document CHEMBL1781923, “Synthesis and anti-tumor evaluation of panaxadiol derivatives” (Eur J Med Chem, 2011)
pIC50: −log10 of the molar value.

Columns and labels:
[1] = Cytotoxicity against human ES2 cells after 48 hrs by MTT assay; format: functional, cell-based; details: ES-2, 48 h
[2] = system: U2OS; experiment: Cytotoxicity against human U2OS cells after 48 hrs by MTT assay; format: functional, cell-based
[3] = system: HepG2; experiment: Cytotoxicity against human HepG2 cells after 48 hrs by MTT assay; format: functional, cell-based; details: HepG2, 48 h
[4] = system: A549; experiment: Cytotoxicity against human A549 cells after 48 hrs by MTT assay; format: functional, cell-based; details: A549, 48 h
[5] = Cytotoxicity against human ES2 cells assessed as cell viability at 25 uM after 48 hrs by MTT assay; format: functional; details: ES-2, 48 h, read-out: Activity
[6] = Cytotoxicity against human ES2 cells assessed as cell viability at 50 uM after 48 hrs by MTT assay; format: functional; details: ES-2, 48 h, read-out: Activity
[7] = system: U2OS; experiment: Cytotoxicity against human U2OS cells assessed as cell viability at 25 uM after 48 hrs by MTT assay; format: functional; details: read-out: Activity
[8] = system: U2OS; experiment: Cytotoxicity against human U2OS cells assessed as cell viability at 50 uM after 48 hrs by MTT assay; format: functional; details: read-out: Activity
[9] = system: HepG2; experiment: Cytotoxicity against human HepG2 cells assessed as cell viability at 25 uM after 48 hrs by MTT assay; format: functional; details: HepG2, 48 h, read-out: Activity
[10] = system: HepG2; experiment: Cytotoxicity against human HepG2 cells assessed as cell viability at 50 uM after 48 hrs by MTT assay; format: functional; details: HepG2, 48 h, read-out: Activity
[11] = system: A549; experiment: Cytotoxicity against human A549 cells assessed as cell viability at 50 uM after 48 hrs by MTT assay; format: functional; details: A549, 48 h, read-out: Activity
[12] = system: A549; experiment: Cytotoxicity against human A549 cells assessed as cell viability at 100 uM after 48 hrs by MTT assay; format: functional; details: A549, 48 h, read-out: Activity

Row | Compound | pIC50 [1] | pIC50 [2] | pIC50 [3] | pIC50 [4] | viability at 25 µM [5] [%] | viability at 50 µM [6] [%] | viability at 25 µM [7] [%] | viability at 50 µM [8] [%] | viability at 25 µM [9] [%] | viability at 50 µM [10] [%] | viability at 50 µM [11] [%] | viability at 100 µM [12] [%]
1 | C=CCCC(=O)O[C@H]1CC[C@]2(C)[C@H]3C[C@@H](O)[C@@H]4[C@@H]([C@@]5(C)CCCC(C)(C)O5)CC[C@@]4(C)[C@]3(C)CC[C@H]2C1(C)C | 4.93 | 4.41 | < 4.30 | < 4.30 |  |  |  |  |  |  |  | 
2 | CC(C)CC(N)C(=O)O[C@H]1CC[C@]2(C)[C@H]3C[C@@H](O)[C@@H]4[C@@H]([C@@]5(C)CCCC(C)(C)O5)CC[C@@]4(C)[C@]3(C)CC[C@H]2C1(C)C (stereo partly specified) | 4.75 | 4.75 | 5.30 | 4.60 | 10.8 | 6.91 | 18.1 | 14.3 | 28.1 | 15.3 | 18.1 | 10.5
3 | CCCCCCCC/C=C/CCCCCCCC(=O)O[C@H]1CC[C@]2(C)[C@H]3C[C@@H](O)[C@@H]4[C@@H]([C@@]5(C)CCCC(C)(C)O5)CC[C@@]4(C)[C@]3(C)CC[C@H]2C1(C)C | 4.68 | 4.78 | < 4.30 | < 4.30 |  |  |  |  |  |  |  | 
4 | CC/C=C(\C)C(=O)O[C@H]1CC[C@]2(C)[C@H]3C[C@@H](O)[C@@H]4[C@@H]([C@@]5(C)CCCC(C)(C)O5)CC[C@@]4(C)[C@]3(C)CC[C@H]2C1(C)C | 4.62 | 4.42 | < 4.30 | < 4.30 |  |  |  |  |  |  |  | 
5 | CC1(C)CCC[C@](C)([C@H]2CC[C@]3(C)[C@@H]2[C@H](O)C[C@@H]2[C@@]4(C)CC[C@H](OC(=O)CN)C(C)(C)[C@@H]4CC[C@]23C)O1 | 5.00 | 4.86 | 4.95 | 4.85 | 7.51 | 6.66 | 13 | 12 | 10.3 | 10 | 18.7 | 13.5
6 | CCC/C=C/C(=O)O[C@H]1CC[C@]2(C)[C@H]3C[C@@H](O)[C@@H]4[C@@H]([C@@]5(C)CCCC(C)(C)O5)CC[C@@]4(C)[C@]3(C)CC[C@H]2C1(C)C | 4.86 | 4.36 | < 4.30 | < 4.30 |  |  |  |  |  |  |  | 
7 | CC1(C)CCC[C@](C)([C@H]2CC[C@]3(C)[C@@H]2[C@H](O)C[C@@H]2[C@@]4(C)CC[C@H](OC(=O)C(N)Cc5ccccc5)C(C)(C)[C@@H]4CC[C@]23C)O1 (stereo partly specified) | 4.82 | 4.79 | 5.05 | 4.73 | 10.3 | 8.58 | 15 | 10.9 | 9.95 | 8.82 | 20.5 | 15.2
8 | CC1(C)CCC[C@](C)([C@H]2CC[C@]3(C)[C@@H]2[C@H](O)C[C@@H]2[C@@]4(C)CC[C@H](O)C(C)(C)[C@@H]4CC[C@]23C)O1 [PANAXADIOL] | 5.25 | 4.57 | 4.42 | 4.37 | 18.8 | 12.4 | 53.4 | 25.7 | 69 | 37.7 | 36 | 24.5
9 | C/C=C(\C)C(=O)O[C@H]1CC[C@]2(C)[C@H]3C[C@@H](O)[C@@H]4[C@@H]([C@@]5(C)CCCC(C)(C)O5)CC[C@@]4(C)[C@]3(C)CC[C@H]2C1(C)C | 5.37 | 4.83 | < 4.30 | < 4.30 |  |  |  |  |  |  |  | 
10 | C=CC(=O)O[C@H]1CC[C@]2(C)[C@H]3C[C@@H](O)[C@@H]4[C@@H]([C@@]5(C)CCCC(C)(C)O5)CC[C@@]4(C)[C@]3(C)CC[C@H]2C1(C)C | 5.10 | 4.68 | < 4.30 | < 4.30 |  |  |  |  |  |  |  | 
11 | CCCCC/C=C/C/C=C/CCCCCCCC(=O)O[C@H]1CC[C@]2(C)[C@H]3C[C@@H](O)[C@@H]4[C@@H]([C@@]5(C)CCCC(C)(C)O5)CC[C@@]4(C)[C@]3(C)CC[C@H]2C1(C)C | 4.75 | 4.49 | < 4.30 | < 4.30 |  |  |  |  |  |  |  | 
12 | CCCCCCCC/C=C/CCCCCCCCCCCC(=O)O[C@H]1CC[C@]2(C)[C@H]3C[C@@H](O)[C@@H]4[C@@H]([C@@]5(C)CCCC(C)(C)O5)CC[C@@]4(C)[C@]3(C)CC[C@H]2C1(C)C | 4.83 | 4.39 | < 4.30 | < 4.30 |  |  |  |  |  |  |  | 
13 | C/C=C/C=C/C(=O)O[C@H]1CC[C@]2(C)[C@H]3C[C@@H](O)[C@@H]4[C@@H]([C@@]5(C)CCCC(C)(C)O5)CC[C@@]4(C)[C@]3(C)CC[C@H]2C1(C)C | 4.86 | 4.36 | < 4.30 | < 4.30 |  |  |  |  |  |  |  | 
14 | C=CCCCCCCCCC(=O)O[C@H]1CC[C@]2(C)[C@H]3C[C@@H](O)[C@@H]4[C@@H]([C@@]5(C)CCCC(C)(C)O5)CC[C@@]4(C)[C@]3(C)CC[C@H]2C1(C)C | 4.71 | 4.50 | < 4.30 | < 4.30 |  |  |  |  |  |  |  | 
15 | CC(C)C(N)C(=O)O[C@H]1CC[C@]2(C)[C@H]3C[C@@H](O)[C@@H]4[C@@H]([C@@]5(C)CCCC(C)(C)O5)CC[C@@]4(C)[C@]3(C)CC[C@H]2C1(C)C (stereo partly specified) | 4.79 | 4.76 | 5.03 | 4.50 | 14.6 | 6.47 | 16.4 | 13.7 | 26.4 | 11.7 | 21.2 | 15.4
16 | CC1(C)CCC[C@](C)([C@H]2CC[C@]3(C)[C@@H]2[C@H](O)C[C@@H]2[C@@]4(C)CC[C@H](OC(=O)C5CCCN5)C(C)(C)[C@@H]4CC[C@]23C)O1 (stereo partly specified) | 4.78 | 4.84 | 5.05 | 5.12 | 10.4 | 6.04 | 12.4 | 8.72 | 5.72 | 6.39 | 19.5 | 14.1
17 | CC(C)=CCC[C@@](C)(O)[C@H]1CC[C@]2(C)[C@@H]1[C@H](O)C[C@@H]1[C@@]3(C)CC[C@H](O[C@@H]4O[C@H](CO)[C@@H](O)[C@H](O)[C@H]4O[C@@H]4O[C@H](CO)[C@@H](O)[C@H](O)[C@H]4O)C(C)(C)[C@@H]3CC[C@]12C | < 4.00 | < 4.00 | < 4.00 | < 4.00 | 82 | 74.5 | 72.2 | 81.3 | 81.3 | 76.2 | 75.6 | 71.1
18 | CSCCC(N)C(=O)O[C@H]1CC[C@]2(C)[C@H]3C[C@@H](O)[C@@H]4[C@@H]([C@@]5(C)CCCC(C)(C)O5)CC[C@@]4(C)[C@]3(C)CC[C@H]2C1(C)C (stereo partly specified) | 4.88 | 4.78 | 4.93 | 4.65 | 13 | 6.4 | 18.4 | 11.6 | 28.4 | 8.56 | 21.6 | 12.7
